# Read-outs that look alike come from different tables or passages of the source.
# Columns and labels:
# [1] = cited from earlier work
# [2] = variety of solvents, including water; cited from earlier work
# [3] = IR700 fluorescence after NIR light exposure; assay type: physicochemical; details: 0.5 μM in DMF or PBS, laser 2-16 J/cm^2
# Procedure: IR700 (0.5 μM) was suspended in DMF or PBS and exposed to NIR light with a laser (690 nm+/−4) at 2, 4, 8 or 16 J/cm^2. The resulting solution was visualized (in an eppendorf tube) with fluorescence at 700 nm. Some samples were not exposed to NIR light.
# [4] = Solubility of silicon phthalocyanines; assay type: physicochemical; details: prior to exposure to NIR light (FIG. 5)
# [5] = test system: A431-luc-GFP cells; assay: Flow cytometry binding to A431-luc-GFP cells with blocking; details: 6 hr incubation at 37° C., blocking study
# Procedure: (§1) Fluorescence arising from the cells after incubation with APC agents was measured using a flow cytometer (FACS Calibur, BD BioSciences, San Jose, CA, USA) and CellQuest software (BD BioSciences). Cells (1×10^5) were incubated with each APC for 6 hr at 37° C.
# [6] = assay type: physicochemical
# Procedure: The resulting solution was run on a 4-20% polyacrylamide gel, and stained with Comassie blue and visualized with light or fluorescence at 700 nm. Some samples were not exposed to NIR light. […] Some examples contained NaN3 (sodium azide), a reactive oxygen scavenger, or no oxygen (using an argon gas flash for 20 minutes). The resulting solution was run on a […] gel, and stained with Comassie blue and visualized with light or fluorescence at 700 nm. Some samples were not exposed to NIR light. […] Some examples contained excess oxygen (using 100% oxygen gas flash for 20 minutes). The resulting solution was run on a 4-20% SDS-PAGE gel, and stained with Comassie blue and visualized with light or fluorescence at 700 nm. Some samples were not exposed to NIR light.
# [7] = test system: A431-luc-GFP cells; assay: PIT on mixed 2D cell culture, target cells; assay type: cell-based; details: mixed 2D culture, repeated PIT 2 J/cm2
# Procedure: (§2) Two hundred thousand A431-luc-GFP cells were seeded into 24 well plates or twenty million cells were seeded onto a 10 cm dish and incubated for 24 hr. Medium was replaced with fresh culture medium containing 10 μg/mL of tra-IR700 which was incubated for 6 hr at 37° C. After washing with PBS, phenol red free culture medium was added. Then, cells were irradiated with a NIR laser, which emits light at 670 to 710 nm wavelength (L690-66-60; Marubeni America Co., Santa Clara, CA, USA). The actual power density (mW/cm2) was measured with an optical power meter (PM 100, Thorlabs, Newton, NJ, USA).
# (§3) The cytotoxic effects of PIT with APC were determined by the luciferase activity and flow cytometric PI staining or GFP. For luciferase activity, 150 μg/mL of D-luciferin-containing media (Gold Biotechnology, St Louis, MO, USA) was administered to PBS-washed cells 1 hr after PIT, and analyzed on a bioluminescence imaging (BLI) system (Photon Imager; Biospace Lab, Paris, France). For the flow cytometric assay, cells were trypsinized 1 hr after treatment and washed with PBS. […]
# (§4) Two hundred thousand cells were seeded on cover-glass-bottomed dishes and incubated for 12 hr. […] The GFP/RFP intensity was evaluated with total pixels with the same threshold in the same field of each spheroid20. […] Fluorescence from treated cells was also measured using a flow cytometer (FACS Calibur).
# [8] = test system: A431-luc-GFP cells; assay: PIT on mixed 3D spheroid, target cells; assay type: cell-based; details: repeated PIT 2 J/cm2
# Procedure: (§5) Spheroids were generated by the hanging drop method in which five thousand cells were suspended in 50 μL medium and then were dispensed into 96 well plates (3D Biomatrix Inc, Ann Arbor, MI, USA) following manufacturer's instructions (Sato et al., Mol. Oncol. 8, 620-632, 2014). Mixed spheroids were made with 5,000 cells of Balb/3T3-RFP and 500 cells of A431-luc-GFP (100:10)). After observation or treatment, spheroids were again incubated with the hanging drop plates containing new media. The volume of the spheroids was calculated with the formula: spheroid volume=4/3 π×radius^3
# (§6) To detect the antigen specific localization of IR700 conjugates, fluorescence microscopy was performed (IX61 or IX81; Olympus America, Melville, NY, USA). Ten thousand cells were seeded on cover-glass-bottomed dishes and incubated for 24 hr. APC was then added to the culture medium at 10 μg/mL and incubated at 37° C. for 6 hr. The cells were then washed with PBS; Propidium Iodide (PI)(1:2000)(Life Technologies) and Cytox Blue (1:500)(Life Technologies), were used to detect dead cells. These were added to the media 30 min before observation. The cells were then exposed to NIR light and serial images were obtained. The filter was set to detect IR700 fluorescence with a 590-650 nm excitation filter, and a 665-740 nm band pass emission filter.
# [9] = test system: A431-luc-GFP flank tumor; assay: In vivo PIT on flank tumor; parameters: species or system mouse; details: 100 μg, repeated PIT 50 J/cm2 day 1 and 100 J/cm2 day 2
# Procedure: All in vivo procedures were conducted in compliance with the Guide for the Care and Use of Laboratory Animal Resources (1996), US National Research Council, and approved by the local Animal Care and Use Committee. Six- to eight-week-old female homozygote athymic nude mice were purchased from Charles River (NCI-Frederick). During procedures, mice were anesthetized with isoflurane.
# Four million A431-luc-GFP cells were injected subcutaneously in both (right and left symmetrically) flanks of the mice, for the monoculture tumor model. […]
# Controls included (1) only NIR light exposure at 50 J/cm2 on day 1 and 100 J/cm2 on day 2 to the right tumor; (2) no treatment for the left tumor. […] Mice were monitored daily, and serial image analysis was performed.
# In vivo fluorescence images were obtained with a Pearl Imager (LI-COR Bioscience) for detecting IR700 fluorescence, and a Maestro Imager (CRi, Woburn, MA, USA) for GFP/RFP. […] The spectral fluorescence images consist of autofluorescence spectra and the spectra from GFP/RFP (tumor), which were then unmixed, based on the characteristic spectral pattern of GFP, using Maestro software (CRi). Regions of interest (ROIs) were manually drawn either on the flank tumor or over the abdominal region as appropriate to the model and fluorescence intensity was measured. […]
# [10] = test system: A431-luc-GFP 3D spheroids; assay type: cell-based
# Procedure: as §5, §6
# 3D reconstructions of the spheroids were obtained with a confocal laser microscope (LSM5 meta, Carl Zeiss, Jena, Germany) after incubation for 30 min with Hoechst 33342 (1:500)(Life Technologies). Sections of spheroids were first fixed with 3.7% formaldehyde in PBS for 10 min at room temperature followed by embedding with OCT (SAKURA, Tokyo, Japan). Then, they were frozen at −80° C., and sliced at 10 μm with a cryotome (LEICA CM3050 S, Leica microsystems, Wetzlar, Germany). Analysis of the images was performed with ImageJ software (http://rsb.info.nih.gov/ij/).
# [11] = test system: A431-luc-GFP cells; assay: In vitro PIT on 2D culture (PI staining, luciferase activity, GFP fluorescence); assay type: cell-based
# Procedure: as §6, §2
# as §3, with “France).” for “France). For the flow cytometric assay, cells were trypsinized 1 hr after treatment and washed with PBS.”
# as §4
# [12] = test system: A431-luc-GFP cells; assay: In vivo PIT on mixed flank tumor, target cells; parameters: species or system mouse; details: repeated PIT
# Procedure: (§7) Four million A431-luc-GFP cells were injected subcutaneously in both (right and left symmetrically) flanks of the mice, for the monoculture tumor model. For the mixed tumor model, mixed cells of 4×10^6 A431-luc-GFP cells and 4×10^5 Balb/3T3-RFP cells (100:10) were injected subcutaneously in the both (right and left symmetrically) flanks.
# (§8) Controls included (1) only NIR light exposure at 50 J/cm2 on day 1 and 100 J/cm2 on day 2 to the right tumor; (2) no treatment for the left tumor. These therapies were performed only once at day 7 after cell implantation. Mice were monitored daily, and serial image analysis was performed.
# (§9) In vivo fluorescence images were obtained with a Pearl Imager (LI-COR Bioscience) for detecting IR700 fluorescence, and a Maestro Imager (CRi, Woburn, MA, USA) for GFP/RFP. […] The spectral fluorescence images consist of autofluorescence spectra and the spectra from GFP/RFP (tumor), which were then unmixed, based on the characteristic spectral pattern of GFP, using Maestro software (CRi). Regions of interest (ROIs) were manually drawn either on the flank tumor or over the abdominal region as appropriate to the model and fluorescence intensity was measured.
# (§10) For BLI, D-luciferin (15 mg/mL, 200 μL) was injected intraperitoneally and the mice were analyzed with a Photon Imager for luciferase activity at day 6. […]
# [13] = test system: Balb/3T3-RFP cells; assay: In vivo PIT on mixed flank tumor, non-target cells; parameters: species or system mouse; details: repeated PIT
# Procedure: as §7, §8, §9, §10
# [14] = test system: Balb/3T3-RFP cells; assay: PIT on 3D spheroids, non-target cells; assay type: cell-based
# Procedure: as §5, §6
# [15] = test system: Balb/3T3-RFP cells; assay: Flow cytometry binding to Balb/3T3-RFP cells; details: non-EGFR expressing cells
# Procedure: as §1
# [16] = test system: Balb/3T3-RFP cells; assay: PIT on mixed 2D cell culture, non-target cells; assay type: cell-based; details: mixed 2D culture, repeated PIT 2 J/cm2
# Procedure: as §2, §3, §4
molecule,measurement,setting,value
"Oc1cccc(-c2c3nc(c(-c4cccc(O)c4)c4ccc([nH]4)c(-c4cccc(O)c4)c4nc(c(-c5cccc(O)c5)c5ccc2[nH]5)CC4)C=C3)c1 [Foscan®, meta-tetrahydroxyphenylchlorin]",extinction coefficient,[1]; at 652 nm,22000 M⁻¹ cm⁻¹
"C=Cc1c(C)c2cc3nc(c(CC(=O)N[C@@H](CC(=O)[O-])C(=O)[O-])c4[nH]c(cc5nc(cc1[nH]2)C(C)=C5CC)c(C)c4C(=O)[O-])[C@@H](CCC(=O)[O-])[C@@H]3C.[Na+].[Na+].[Na+].[Na+] [NPe6/Laserphyrin®, mono-L-aspartylchlorin e6]",extinction coefficient,[1]; at 654 nm,40000 M⁻¹ cm⁻¹
O[Si]1(O)n2c3c4ccccc4c2N=C2N=C(N=c4c5ccccc5c(n41)=NC1=NC(=N3)c3ccccc31)c1ccccc12 [silicon phthalocyanine dihydroxide],solubility,[2],no measurable solubility
IRDye® 700DX [IR700],fluorescence after NIR exposure (photobleaching),[3],still fluorescent even after exposure to strong NIR light
same,solubility,[4],can dissolve in different aqueous and organic solvents
same,extinction coefficient,[1]; at the absorption maximum of 689 nm,210000 M⁻¹ cm⁻¹
"Pan-IR700: Panitumumab (Vectibix), anti-human EGFR IgG2 MAb, conjugated to IR700; about 3 IR700 per antibody",binding to cells (FACS),[5],Specific binding
same,degradation by NIR in excess oxygen,[6],less degradation
same,oxygen dependence of cleavage by NIR,"[6]; 8 or 16 J/cm^2, no treatment, NaN3 or no oxygen (argon)",oxygen independent
same,cleavage of conjugate after NIR light,"[6]; PBS, LED or laser 690 nm, 2-16 J/cm^2",broken down or cleaved after exposure to NIR light
same,target cell elimination,[7],complete target cell elimination
same,target cell elimination,[8],complete target cell elimination from the mixed 3D cell culture
same,GFP signal and luciferase activity of tumor,[9],disappearance of both GFP signal and luciferase activity
same,permeation into spheroids (IR700 fluorescence),[10],gradually permeated into spheroids from the perimeter
same,eradication of cells in 3D spheroid,[10]; daily repeated PIT,complete eradication of A431-luc-GFP cells within spheroids
same,cell death in 3D spheroid after PIT,"[10]; single PIT, 2 J/cm2",necrotic cell death in the APC-bound layer of A431-luc-GFP cells
same,spheroid size after PIT,[10]; target 3D spheroid,clearly decreased in size
same,bioluminescence (BLI) and GFP fluorescence intensity after PIT,"[11]; 2D culture, 1 hr after PIT",decrease in bioluminescence (BLI) and GFP fluorescence intensity also in a light-dose dependent manner
same,cell killing (dead PI staining),"[11]; 2D culture, NIR light dose series",killed in a light-dose dependent manner
same,cell death by microscopy,"[11]; 6 hr incubation, NIR 2 J/cm2, 1 hr after PIT",Necrotic cell death was observed
same,target cell elimination from mixed tumors,[12],complete elimination of target-expressing cells from mixed tumors in vivo
same,damage to non-target cells in mixed tumors,[13],minimal damage to non-target cells
same,effect on non-target cells,"[14]; mixed 3D spheroid, repeated PIT 2 J/cm2",without damaging non-target cells
same,change of non-target-expressing 3D spheroid with PIT,[14]; spheroid of non-target cells only,no remarkable change
same,binding to cells (FACS),[15],no binding
same,effect on non-target cells,[16],without affecting the non-target cell growth
Photofrin®,extinction coefficient,[1]; at 630 nm,1200 M⁻¹ cm⁻¹
